Values of other authors in patent publication EP0454783B1, “SITE SPECIFIC IN-VIVO ACTIVATION OF THERAPEUTIC DRUGS” (Akzo Nobel N.V., priority 1989, dated 1990).

Molecular target: lysozyme (Gallus gallus, UniProt P00698)
Details: Imoto et al, 1972

Chain of lysozyme (P00698 19-147): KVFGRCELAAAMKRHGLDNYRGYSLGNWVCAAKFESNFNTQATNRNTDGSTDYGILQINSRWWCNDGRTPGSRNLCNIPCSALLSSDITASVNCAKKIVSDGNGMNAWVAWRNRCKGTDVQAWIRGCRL

fold higher rate of cleavage by lysozyme than chitotriose: 30,000 fold
SMILES: CC(=O)N[C@H]1[C@H](O[C@H]2[C@H](O)[C@@H](NC(C)=O)[C@H](O[C@H]3[C@H](O)[C@@H](NC(C)=O)C(O)O[C@@H]3CO)O[C@@H]2CO)O[C@H](CO)[C@@H](O[C@@H]2O[C@H](CO)[C@@H](O[C@@H]3O[C@H](CO)[C@@H](O[C@@H]4O[C@H](CO)[C@@H](O)[C@H](O)[C@H]4NC(C)=O)[C@H](O)[C@H]3NC(C)=O)[C@H](O)[C@H]2NC(C)=O)[C@@H]1O (stereo partly shown) [chitohexaose]
